Legend:
Curly dock (RUMCR) = test: Field test, weed control, post-emergence, 15 DAT (Example 1); assay type: in vivo; settings: use rate I.7 12.5 g/ha, tribenuron-methyl 10 g/ha
Description: (§1) The phenyluracils I and/or the other active ingredients according to the present invention were formulated in a suitable way, either separately or in mixture, e.g. as emulsifiable concentrates (EC), soluble concentrates (SL), suspo-emulsions (SE), suspension concentrates (SC) or water-dispersible granules (WG). The formulation(s) were suspended or emulsified in water as a distribution medium immediately prior to spraying. Afterwards, the aqueous mixture was evenly sprayed on the test plots by means of finely distributing nozzles.
(§2) The test plots were of uniform size (typically between 14 and 37 square meters, each) and the distribution of treated and untreated plots was organized according to a randomised bloc design. Crops were sown in rows at a season which was typical for the region and the crop according to usual farm practice. Weeds were not sown but germinated according to the natural infestation.
(§3) For pre-plant and pre-plant burn-down treatments, the plots were treated before the crop was planted, typically 7 to 28 days prior to planting. For pre-emergence treatments, the plots were treated at planting (plus or minus two days) but before emergence. For post-emergence or in-crop treatments, the plots were treated after the emergence of the weed or crop, typically 20 to 50 days after planting. […]

Wild mustard (SINAR) = test: as above; assay type: in vivo; settings: use rate I.7 12.5 g/ha, tribenuron-methyl 10 g/ha
Description: as §1, §2, §3

Structure (SMILES): COC(=O)c1ccccc1S(=O)(=O)NC(=O)N(C)c1nc(C)nc(OC)n1 [tribenuron-methyl]
- Weed control (% control) Curly dock (RUMCR) Found (Curly dock (RUMCR)): 40 % control
- Weed control (% control) Wild mustard (SINAR) Found (Wild mustard (SINAR)): 100 % control
